{"source": "patent US20110158980A1", "about": "“METHODS TO TREAT AND SCREEN FOR AGENTS TO TREAT OBESITY” (TRUSTEES OF TUFTS COLLEGE, priority 2008, published 2011)", "test_system": "3T3-L1 adipocytes", "assay": "Metabolic flux analysis (stoichiometric model) of adipocyte intermediary metabolism", "type": "cell-based", "protocol": "3T3-L1 preadipocytes were plated onto 24-well plates and expanded in preadipocyte growth medium consisting of DMEM supplemented with calf serum (10% v/v), penicillin and streptomycin. Medium was replenished every other day. Two days post-confluence, the cells were induced to differentiate using an adipogenic cocktail (1 μg/ml insulin, 0.5 mM isobutylmethylxanthine, and 1 μM dexamethasone) added to a basal medium (DMEM with 10% fetal bovine serum and penicillin/streptomycin). After 48 hrs, the first medium was replaced with a second induction medium consisting of the basal adipocyte medium supplemented with only insulin. […] This basal medium was replenished every other day during the remainder of the culture experiments.\nA stoichiometric model of adipocyte central carbon metabolism was constructed as described previously (Si Y, Yoon J, Lee K. American journal of physiology 2007; 292:E1637-46). The model consisted of the major pathways of central carbon metabolism (Table 1). Intracellular fluxes were estimated by solving a constrained non-linear optimization problem with stoichiometric and thermodynamic constraints (Nolan R P, Fenley A P, Lee K. Metab Eng 2006; 8:30-45).", "key": {"[1]": {"conditions": "PA 10 mM, day 12 post-induction"}}}
{"smiles": "O=C(O)Cc1ccccc1", "note": "[phenylacetate]", "values": [{"measurement": "Flux RXN 65 Mitochondrial exchange: 2-Oxoglutarate in, Malate out", "setting": "PA 5 mM, day 12 post-induction", "result": "36.9 ± 7.3", "unit": "mmol/g-DNA/2 days"}, {"measurement": "Flux RXN 66 Mitochondrial exchange: Pi in, Malate out", "setting": "PA 5 mM, day 12 post-induction", "result": "79.9 ± 9.7", "unit": "mmol/g-DNA/2 days"}, {"measurement": "Flux RXN 1 Glycolysis: Glucose + ATP = Glucose 6-P + ADP", "setting": "[1]", "result": "341.0 ± 14.4", "unit": "mmol/g-DNA/2 days"}, {"measurement": "Flux RXN 3 Glycolysis: Fructose 6-P + ATP = Glyceraldehyde 3-P + Glycerone-P + ADP", "setting": "[1]", "result": "332.9 ± 13.7", "unit": "mmol/g-DNA/2 days"}, {"measurement": "Flux RXN 4 Glycolysis: Glycerone-P = Glyceraldehyde 3-P", "setting": "[1]", "result": "309.4 ± 13.0", "unit": "mmol/g-DNA/2 days"}, {"measurement": "Flux RXN 5 Glycolysis: Glyceraldehyde 3-P + NAD+ + ADP + Pi = P-Enolpyruvate + ATP + H2O", "setting": "[1]", "result": "650.5 ± 26.0", "unit": "mmol/g-DNA/2 days"}, {"measurement": "Flux RXN 6 Glycolysis: P-Enolpyruvate + ADP + H+ = Pyruvate + ATP", "setting": "[1]", "result": "725.6 ± 35.8", "unit": "mmol/g-DNA/2 days"}, {"measurement": "Flux RXN 7 Glycolysis: Pyruvate + NADH + H+ = Lactate + NAD+", "setting": "[1]", "result": "427.8 ± 9.4", "unit": "mmol/g-DNA/2 days"}, {"measurement": "Flux RXN 8 Pentose phosphate pathway: Glucose 6-P + 2 NADP+ + H2O = Ribulose 5-P + CO2 + 2 NADPH + 2 H+", "setting": "[1]", "result": "24.3 ± 18.5^ mmol/g-DNA/2 days"}, {"measurement": "Flux RXN 9 Pentose phosphate pathway: 3 Ribulose 5-P = 2 Fructose 6-P + Glyceraldehyde 3-P", "setting": "[1]", "result": "8.1 ± 6.2^ mmol/g-DNA/2 days"}, {"measurement": "Flux RXN 10 TCA cycle (mitochondria) (PDC)", "setting": "[1]", "result": "233.7 ± 25.1", "unit": "mmol/g-DNA/2 days"}, {"measurement": "Flux RXN 12 TCA cycle (mitochondria)", "setting": "[1]", "result": "132.2 ± 19.3", "unit": "mmol/g-DNA/2 days"}, {"measurement": "Flux RXN 13 TCA cycle (mitochondria)", "setting": "[1]", "result": "158.6 ± 26.1", "unit": "mmol/g-DNA/2 days"}, {"measurement": "Flux RXN 14 TCA cycle (mitochondria)", "setting": "[1]", "result": "169.9 ± 26.6", "unit": "mmol/g-DNA/2 days"}, {"measurement": "Flux RXN 15 TCA cycle (mitochondria)", "setting": "[1]", "result": "170.1 ± 27.0", "unit": "mmol/g-DNA/2 days"}, {"measurement": "Flux RXN 16 TCA cycle (mitochondria)", "setting": "[1]", "result": "110.2 ± 17.8", "unit": "mmol/g-DNA/2 days"}, {"measurement": "Flux RXN 17 TCA cycle: Citrate + CoA + ATP = Acetyl-CoA + Oxaloacetate + ADP + Pi", "setting": "[1]", "result": "75.1 ± 16.4", "unit": "mmol/g-DNA/2 days"}, {"measurement": "Flux RXN 18 TCA cycle: Oxaloacetate + NADH + H+ = Malate + NAD+", "setting": "[1]", "result": "0.0 ± 0.0^ mmol/g-DNA/2 days"}, {"measurement": "Flux RXN 19 TCA cycle: Malate + NADP+ = Pyruvate + CO2 + NADPH", "setting": "[1]", "result": "59.9 ± 9.2", "unit": "mmol/g-DNA/2 days"}, {"measurement": "Flux RXN 20 TCA cycle: Citrate + NADP+ = 2-Oxoglutarate + CO2 + NADPH + H+", "setting": "[1]", "result": "26.4 ± 6.9", "unit": "mmol/g-DNA/2 days"}, {"measurement": "Flux RXN 21 TCA cycle: Oxaloacetate + ATP = P-Enolpyruvate + CO2 + ADP", "setting": "[1]", "result": "75.1 ± 16.4", "unit": "mmol/g-DNA/2 days"}, {"measurement": "Flux RXN 22 Oxidative phosphorylation (NADH + 0.5 O2)", "setting": "[1]", "result": "213.9 ± 89.2", "unit": "mmol/g-DNA/2 days"}, {"measurement": "Flux RXN 23 Oxidative phosphorylation (FADH2 + 0.5 O2)", "setting": "[1]", "result": "189.1 ± 27.3", "unit": "mmol/g-DNA/2 days"}, {"measurement": "Flux RXN 24 Palmitate biosynthesis", "setting": "[1]", "result": "9.4 ± 2.0", "unit": "mmol/g-DNA/2 days"}, {"measurement": "Flux RXN 25 Tripalmitoylglycerol biosynthesis: Glycerone-P + 3 Palmitate to Tripalmitoylglycerol", "setting": "[1]", "result": "23.5 ± 3.0", "unit": "mmol/g-DNA/2 days"}, {"measurement": "Flux RXN 26 Tripalmitoylglycerol + 3 H2O = Glycerol + 3 Palmitate", "setting": "[1]", "result": "20.6 ± 2.4", "unit": "mmol/g-DNA/2 days"}, {"measurement": "Flux RXN 27 Tripalmitoylglycerol accumulation", "setting": "[1]", "result": "2.9 ± 0.6", "unit": "mmol/g-DNA/2 days"}, {"measurement": "Flux RXN 28 Metabolism of ketone bodies", "setting": "[1]", "result": "7.8 ± 0.2", "unit": "mmol/g-DNA/2 days"}, {"measurement": "Flux RXN 29 Metabolism of ketone bodies", "setting": "[1]", "result": "0.0 ± 0.0^ mmol/g-DNA/2 days"}, {"measurement": "Flux RXN 30 Metabolism of ketone bodies (to 3-Hydroxybutyrate)", "setting": "[1]", "result": "15.9 ± 0.7", "unit": "mmol/g-DNA/2 days"}, {"measurement": "Flux RXN 31 Amino acid metabolism: Pyruvate + NH4+ + NADPH = Alanine", "setting": "[1]", "result": "0.5 ± 0.1", "unit": "mmol/g-DNA/2 days"}, {"measurement": "Flux RXN 32 Amino acid metabolism: Aspartate + NH4+ = Asparagine", "setting": "[1]", "result": "2.9 ± 0.2", "unit": "mmol/g-DNA/2 days"}, {"measurement": "Flux RXN 33 Amino acid metabolism: Aspartate = Oxaloacetate + NH4+ + NADH", "setting": "[1]", "result": "0.0 ± 0.0^ mmol/g-DNA/2 days"}, {"measurement": "Flux RXN 34 Amino acid metabolism: Cysteine = Pyruvate + NH4+ + NADH", "setting": "[1]", "result": "0.0 ± 0.0^ mmol/g-DNA/2 days"}, {"measurement": "Flux RXN 35 Amino acid metabolism: Glutamate = 2-Oxoglutarate + NH4+ + NADH", "setting": "[1]", "result": "0.0 ± 0.0", "unit": "mmol/g-DNA/2 days"}, {"measurement": "Flux RXN 36 Amino acid metabolism: Glutamate + NH4+ + ATP = Glutamine", "setting": "[1]", "result": "0.0 ± 0.0", "unit": "mmol/g-DNA/2 days"}, {"measurement": "Flux RXN 37 Amino acid metabolism: Serine + THF = Glycine", "setting": "[1]", "result": "6.2 ± 0.4^ mmol/g-DNA/2 days"}, {"measurement": "Flux RXN 38 Amino acid metabolism: Histidine + THF = Glutamate + NH4+", "setting": "[1]", "result": "0.5 ± 0.1", "unit": "mmol/g-DNA/2 days"}, {"measurement": "Flux RXN 39 Amino acid metabolism: Isoleucine + 2 CoA", "setting": "[1]", "result": "7.5 ± 0.2", "unit": "mmol/g-DNA/2 days"}, {"measurement": "Flux RXN 40 Amino acid metabolism: Leucine + CoA + CO2 + ATP", "setting": "[1]", "result": "7.9 ± 0.2", "unit": "mmol/g-DNA/2 days"}, {"measurement": "Flux RXN 41 Amino acid metabolism: Lysine = 2-Oxoadipate + 2 NH4+ + 3 NADH", "setting": "[1]", "result": "0.0 ± 0.0^ mmol/g-DNA/2 days"}, {"measurement": "Flux RXN 42 Amino acid metabolism: 2-Oxoadipate + CoA", "setting": "[1]", "result": "0.0 ± 0.0^ mmol/g-DNA/2 days"}, {"measurement": "Flux RXN 43 Amino acid metabolism: Methionine + Serine + ATP + CoA + THF", "setting": "[1]", "result": "0.0 ± 0.0^ mmol/g-DNA/2 days"}, {"measurement": "Flux RXN 44 Amino acid metabolism: Phenylalanine + O2 + NADH = Tyrosine", "setting": "[1]", "result": "0.1 ± 0.3^ mmol/g-DNA/2 days"}, {"measurement": "Flux RXN 45 Amino acid metabolism: Glutamate + ATP + 2 NADPH = Proline", "setting": "[1]", "result": "1.5 ± 0.1", "unit": "mmol/g-DNA/2 days"}, {"measurement": "Flux RXN 46 Amino acid metabolism: Serine = Pyruvate + NH4+", "setting": "[1]", "result": "0.0 ± 0.0^ mmol/g-DNA/2 days"}, {"measurement": "Flux RXN 47 Amino acid metabolism: Threonine + CoA to Glycine", "setting": "[1]", "result": "0.2 ± 0.2", "unit": "mmol/g-DNA/2 days"}, {"measurement": "Flux RXN 48 Amino acid metabolism: Tryptophan + 3 O2 + NADPH = 2-Oxoadipate + Alanine + CO2 + NH4+", "setting": "[1]", "result": "0.0 ± 0.0^ mmol/g-DNA/2 days"}, {"measurement": "Flux RXN 49 Amino acid metabolism: Tyrosine + 2 O2", "setting": "[1]", "result": "0.2 ± 0.5^ mmol/g-DNA/2 days"}, {"measurement": "Flux RXN 50 Amino acid metabolism: Valine + CoA", "setting": "[1]", "result": "3.8 ± 0.4", "unit": "mmol/g-DNA/2 days"}, {"measurement": "Flux RXN 51 Plasma exchange: Palmitate", "setting": "[1]", "result": "0.8 ± 0.1", "unit": "mmol/g-DNA/2 days"}, {"measurement": "Flux RXN 52 Plasma exchange: Acetoacetate", "setting": "[1]", "result": "0.0 ± 0.1", "unit": "mmol/g-DNA/2 days"}, {"measurement": "Flux RXN 53 Plasma exchange: Alanine", "setting": "[1]", "result": "0.5 ± 0.1", "unit": "mmol/g-DNA/2 days"}, {"measurement": "Flux RXN 54 Plasma exchange: Aspartate", "setting": "[1]", "result": "2.9 ± 0.2", "unit": "mmol/g-DNA/2 days"}, {"measurement": "Flux RXN 55 Plasma exchange: Cysteine", "setting": "[1]", "result": "0.0 ± 0.0^ mmol/g-DNA/2 days"}, {"measurement": "Flux RXN 56 Plasma exchange: Glutamate", "setting": "[1]", "result": "0.9 ± 0.1", "unit": "mmol/g-DNA/2 days"}, {"measurement": "Flux RXN 57 Plasma exchange: Glycine", "setting": "[1]", "result": "6.4 ± 0.4", "unit": "mmol/g-DNA/2 days"}, {"measurement": "Flux RXN 58 Plasma exchange: Serine", "setting": "[1]", "result": "6.2 ± 0.4^ mmol/g-DNA/2 days"}, {"measurement": "Flux RXN 59 Plasma exchange: Tyrosine", "setting": "[1]", "result": "0.1 ± 0.2^ mmol/g-DNA/2 days"}, {"measurement": "Flux RXN 60 Plasma exchange: O2 (calculated oxygen uptake rate)", "setting": "[1]", "result": "202.1 ±59.1 *^ mmol/g-DNA/2 days"}, {"measurement": "Flux RXN 61 Plasma exchange: CO2", "setting": "[1]", "result": "582.8 ± 66.5", "unit": "mmol/g-DNA/2 days"}, {"measurement": "Flux RXN 62 Plasma exchange: NH4+", "setting": "[1]", "result": "16.5 ± 1.3", "unit": "mmol/g-DNA/2 days"}, {"measurement": "Flux RXN 63 Mitochondrial exchange: Pyruvate", "setting": "[1]", "result": "357.2 ± 37.5", "unit": "mmol/g-DNA/2 days"}, {"measurement": "Flux RXN 64 Mitochondrial exchange: Malate in, Citrate out", "setting": "[1]", "result": "101.5 ± 16.0", "unit": "mmol/g-DNA/2 days"}, {"measurement": "Flux RXN 65 Mitochondrial exchange: 2-Oxoglutarate in, Malate out", "setting": "[1]", "result": "26.4 ± 6.9", "unit": "mmol/g-DNA/2 days"}, {"measurement": "Flux RXN 66 Mitochondrial exchange: Pi in, Malate out", "setting": "[1]", "result": "59.9 ± 9.2", "unit": "mmol/g-DNA/2 days"}, {"measurement": "Decrease of flux through phosphoenolpyruvate carboxykinase", "setting": "phenylacetate", "result": 40, "unit": "%"}, {"measurement": "Reduction of de novo fatty acid synthesis", "setting": "phenylacetate", "result": "~40", "unit": "%"}, {"measurement": "Reduction of triglyceride accumulation", "setting": "phenylacetate", "result": 40, "unit": "%"}, {"measurement": "Increase of flux through glycolysis", "setting": "phenylacetate (5 and 10 mM), day 12 post-induction", "result": "15˜60%"}, {"measurement": "Decrease of total flux of pyruvate into the mitochondrial reactions", "setting": "phenylacetate at the higher concentration (10 mM)", "result": 29, "unit": "%"}, {"measurement": "Decrease of flux through the PPP", "setting": "phenylacetate, noted only for the 5 mM condition", "result": 83, "unit": "%"}, {"measurement": "Increase of fluxes through other lipogenic reactions (including esterification)", "setting": "phenylacetate, higher concentration having the larger effect", "result": "64˜75%"}]}
